Assays:
[1] = Determination of surface tension, Wilhelmy plate method (DIN 53914); assay type: physicochemical; details: added to anionic surfactant (Texapon NSO)
Protocol: Determination of Surface Activity
Surface activity was determined to DIN 53914. To this end, the solution to be tested was tested by the Wilhelmy plate method (plate PT 11) at 21±1° C. The preparations according to the invention are intended to have a surface activity of at least 20 mN/m, preferably at least 25 mN/m and more particularly at least 30 mN/m, based on the active substance content of 5% by weight.
The surface tension of the surfactant solution containing tartaric acid was compared with that of the pure surfactant solution (Texapon® NSO, sodium lauryl ether sulfate; Cognis, Dusseldorf) by conducting measurements at 21±1° C. using the Wilhelmy plate method (plate PT 11) to DIN 53914.

[2] = Determination of foaming behavior, rotor foam method; assay type: physicochemical; details: added to anionic surfactant (Texapon NSO)
Protocol: To determine foaming behavior, the foaming kinetics after 30 seconds and the foam potential after 60 s and 180 s were measured by the rotor foam method (DIN 13996 in preparation). The rotor foam tester consists of a heatable, double-walled cylindrical glass vessel with an internal diameter of 17.5 cm. A scale in mm is provided on the cylindrical glass vessel for reading off the foam height and the liquid level. In addition, the glass vessel is provided with a Styropor lid which is used both to cover and to insulate the vessel. The stirrer consists of a special stirring head with a stirrer shaft 28 cm in length and 1 cm in diameter and a JK stirrer with a digital revolution counter. A thermostat, a stopwatch and a thermometer (digital) are also required.
The test solution was prepared with water of a certain hardness (15° dH). 200 ml of the sample preheated to 30±1° C. were slowly poured in at the rim of the glass vessel which was covered with the Styropor lid when the required temperature of 30±1° C. had been reached. The rotor speed was 1300 r.p.m.
The first foam height value was determined after 30 seconds. To this end, the stirrer was switched off for at most 10 seconds. The foam volume was then determined after 60 and 180 seconds.

| Effect of the addition on the surface activity of the anionic surfactant [1] | Effect of the addition on the foam behavior of the anionic surfactant [2] | Compound |
| --- | --- | --- |
| does not significantly affect | does not significantly affect | O=C(O)C(O)C(O)C(=O)O (stereo not shown) [tartaric acid] |
| does not significantly affect | does not significantly affect | laureth-4-citrate |
